Converted amounts (≈) assume the structure as drawn. Where two headings read alike, the source gives them in different places.
Key:
LexA = LexA (Escherichia coli, UniProt P0A7C2); conditions: peptide at 1.5 mM; LexA 5 uM, 0.25 uM activated RecA, 37 degrees, 30 min (FIG. 20)
Protocol: Cleavage of LexA was initiated by the addition of 0.25 uM activated RecA. The mixture was incubated at 37 degrees for 30 min. Aliquots were removed and quenched in aqueous acetonitrile containing 0.1% TFA.
The cleavage of LexA protein was monitored by HPLC using a gradient of 30 to 90% buffer B (9.9% H2O, 90% CH3CN, 0.1% TFA) in buffer A(98% H2O, 1.9% CH3CN, 0.1% TFA) and recording absorbance at 214 nm. […] Error bars represent one standard deviation of three separate experiments.

[1] = tested on: ATCC 25922-ΔlacZ(gyrA(S83L)); assay: second step mutation rate to 650 ng/ml ciprofloxacin resistance; type: cell-based, E. coli; conditions: wild-type strain already resistant to 35 ng/ml, evolving resistance to 650 ng/ml ciprofloxacin
Source text: (§3) Error bars represent standard deviation from two independent rate determinations.

[2] = tested on: ATCC 25922-lexA(S119A)(gyrA(S83L)); assay: as above; type: cell-based, E. coli; conditions: lexA(S119A) strain already resistant to 35 ng/ml, evolving resistance to 650 ng/ml ciprofloxacin
Source text: as §3

[3] = tested on: E. coli K-12 (MG1655) isogenic loss of function strains; assay: ciprofloxacin MIC of isogenic strains (Table 5); conditions: Escherichia coli
ATCC 25922-lexA(S119A) = assay: mouse thigh infection treated with ciprofloxacin, resistant colonies; conditions: mice given approximately cytostatic ciprofloxacin dose
E. coli MG1655 = assay: pre-exposure to rifampicin, then plating on 35 ng/mL ciprofloxacin; type: cell-based
[4] = tested on: LacZ strain (ATCC 25922-ΔlacZ); assay: in vitro susceptibility testing (NCCLS method), rifampin MIC; type: cell-based, E. coli; conditions: Escherichia coli
Protocol: (§1) In vitro susceptibility testing of strains was preformed using the NCCLS method. (See National Committee for Clinical Laboratory Standards. 1997. Reference method for broth dilution anti-fungal susceptibility testing of yeasts. Approved standard M27-A. National Committee for Clinical Laboratory Standards, Wayne, Pa.) Eight colonies from each group at the 72 hr time point from MHA plate with and without rifampin were obtained. Minimum inhibitory concentrations (“MICs”) were performed in duplicate on three occasions on each colony. […] Minimum inhibitory concentrations of both the LexA and LacZ strains pre-treatment=8.0 mg/L.

[5] = tested on: LexA strain (ATCC 25922 lexA(S119A)); assay: as above; type: cell-based, E. coli; conditions: Escherichia coli
Protocol: as §1

ATCC 25922 lexA(S119A) [6] = assay: in vitro susceptibility testing with rifampin, Example 8; type: cell-based, E. coli
Protocol: (§2) In vitro susceptibility testing was performed with rifampin on the parent strains and on cells isolated from the agar plates after therapy.

E. coli ATCC 25922-ΔlacZ [7] = assay: as above; type: cell-based; conditions: Escherichia coli
Protocol: as §2

E. coli ATCC 25922-ΔlacZ [8] = assay: neutropenic Swiss ICR mouse thigh infection treated with rifampin, CFU determination; conditions: lacZ Strain; rifampin 100 mg/kg subcutaneous every 12 hours; 96 h
Protocol: Two hours after infection the mice received rifampin at 100 mg/kg (subcutaneous) every 12 hours. The mice continued the rifampin regimen until they were sacrificed. Two mice were sacrificed at 0, 24, 48, 72 and 96 hours. The thighs were removed, homogenized, 1:10 serial diluted, and plated for CFU determination. Homogenates were plated on MH agar (NHA) to quantify the entire population of organisms and on rifampin containing MHA plates (16 mg/L) to quantify the population of organisms with a rifampin resistance phenotype.

ATCC 25922 lexA(S119A) [9] = assay: neutropenic CD1 mouse thigh infection treated with rifampin, colonies on rifampin plates; conditions: rifampin 100 mg/kg twice daily subcutaneous; plates 128 mg/L; over the 72 h study period
Protocol: (§4) Two hours after infection mice were treated with rifampin 100 mg/kg twice daily via the subcutaneous route. Groups of two mice were sacrificed at the started of therapy (zero hour) and every 24 h for a period of 72 h. After euthanasia, thigh were removed, homogenized, diluted, and plated for CFU enumeration (lower limit of detection is 2 log cfu/thigh). Homogenate dilutions were plated on MHA with and without rifampin (128 mg/L).

E. coli ATCC 25922-ΔlacZ [10] = assay: as above; conditions: rifampin 100 mg/kg twice daily subcutaneous; plates 128 mg/L; after 72 h of therapy
Protocol: as §4

[11] = ATCC25922, colonies from the 72 hr time point of rifampin therapy in mice, read-out: Minimum Inhibitory Concentrations, Post
[12] = ATCC25922, pre-treatment, read-out: Minimum Inhibitory Concentrations, Pre

Sequence of LexA (P0A7C2 whole entry): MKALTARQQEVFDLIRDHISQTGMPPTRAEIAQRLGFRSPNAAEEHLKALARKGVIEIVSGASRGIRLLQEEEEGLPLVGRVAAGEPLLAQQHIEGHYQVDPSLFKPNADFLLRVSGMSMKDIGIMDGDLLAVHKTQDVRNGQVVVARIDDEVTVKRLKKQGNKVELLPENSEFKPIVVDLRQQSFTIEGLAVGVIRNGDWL

## VAAGEPL [peptide 3]
LexA
  inhibition of LexA's autocleavage: inhibition

## O=C(O)c1cn(C2CC2)c2cc(N3CCNCC3)c(F)cc2c1=O [ciprofloxacin]
[1]
  'second step' mutation rate: 1.9 (±0.21)×10^−4 mutants/(cell day)
[2]
  'second step' mutation rate: 5.5 (±4.9)×10^−7 mutants/(cell day)
[3]; MG1655, read-out: ciprofloxacin MIC, strain lexA (S119A), WT gyrA
  MIC: 0.03 µg/mL
[3]; MG1655, read-out: ciprofloxacin MIC, strain lexA (S119A), gyrA S83L
  MIC: 0.35 µg/mL
[3]; MG1655, read-out: ciprofloxacin MIC, strain lexA (S119A), gyrA S83Δ
  MIC: 0.25 µg/mL
[3]; MG1655, read-out: ciprofloxacin MIC, strain ΔdinB, WT gyrA
  MIC: 0.035 µg/mL
[3]; MG1655, read-out: ciprofloxacin MIC, strain ΔdinB, gyrA S83L
  MIC: 0.45 µg/mL
[3]; MG1655, read-out: ciprofloxacin MIC, strain ΔdinB, gyrA S83Δ
  MIC: 0.25 µg/mL
[3]; MG1655, read-out: ciprofloxacin MIC, strain ΔdinB, ΔumuDC, WT gyrA
  MIC: 0.035 µg/mL
[3]; MG1655, read-out: ciprofloxacin MIC, strain ΔdinB, ΔumuDC, gyrA S83L
  MIC: 0.45 µg/mL
[3]; MG1655, read-out: ciprofloxacin MIC, strain ΔdinB, ΔumuDC, gyrA S83Δ
  MIC: 0.25 µg/mL
[3]; MG1655, read-out: ciprofloxacin MIC, strain ΔlacZ, WT gyrA
  MIC: 0.035 µg/mL
[3]; MG1655, read-out: ciprofloxacin MIC, strain ΔlacZ, gyrA S83L
  MIC: 0.45 µg/mL
[3]; MG1655, read-out: ciprofloxacin MIC, strain ΔlacZ, gyrA S83Δ
  MIC: 0.25 µg/mL
[3]; MG1655, read-out: ciprofloxacin MIC, strain ΔpolB, WT gyrA
  MIC: 0.03 µg/mL
[3]; MG1655, read-out: ciprofloxacin MIC, strain ΔpolB, gyrA S83L
  MIC: 0.45 µg/mL
[3]; MG1655, read-out: ciprofloxacin MIC, strain ΔpolB, gyrA S83Δ
  MIC: 0.25 µg/mL
[3]; MG1655, read-out: ciprofloxacin MIC, strain ΔpolB, ΔdinB, WT gyrA
  MIC: 0.025 µg/mL
[3]; MG1655, read-out: ciprofloxacin MIC, strain ΔpolB, ΔdinB, gyrA S83L
  MIC: 0.45 µg/mL
[3]; MG1655, read-out: ciprofloxacin MIC, strain ΔpolB, ΔdinB, gyrA S83Δ
  MIC: 0.25 µg/mL
[3]; MG1655, read-out: ciprofloxacin MIC, strain ΔpolB, ΔdinB, ΔumuDC, WT gyrA
  MIC: 0.025 µg/mL
[3]; MG1655, read-out: ciprofloxacin MIC, strain ΔpolB, ΔdinB, ΔumuDC, gyrA S83L
  MIC: 0.45 µg/mL
[3]; MG1655, read-out: ciprofloxacin MIC, strain ΔpolB, ΔdinB, ΔumuDC, gyrA S83Δ
  MIC: 0.25 µg/mL
[3]; MG1655, read-out: ciprofloxacin MIC, strain ΔpolB, ΔumuDC, WT gyrA
  MIC: 0.025 µg/mL
[3]; MG1655, read-out: ciprofloxacin MIC, strain ΔpolB, ΔumuDC, gyrA S83L
  MIC: 0.45 µg/mL
[3]; MG1655, read-out: ciprofloxacin MIC, strain ΔpolB, ΔumuDC, gyrA S83Δ
  MIC: 0.25 µg/mL
[3]; MG1655, read-out: ciprofloxacin MIC, strain ΔrecD, WT gyrA
  MIC: 0.035 µg/mL
[3]; MG1655, read-out: ciprofloxacin MIC, strain ΔrecD, gyrA S83L
  MIC: 0.35 µg/mL
[3]; MG1655, read-out: ciprofloxacin MIC, strain ΔrecD, gyrA S83Δ
  MIC: 0.25 µg/mL
[3]; MG1655, read-out: ciprofloxacin MIC, strain ΔumuDC, WT gyrA
  MIC: 0.035 µg/mL
[3]; MG1655, read-out: ciprofloxacin MIC, strain ΔumuDC, gyrA S83L
  MIC: 0.45 µg/mL
[3]; MG1655, read-out: ciprofloxacin MIC, strain ΔumuDC, gyrA S83Δ
  MIC: 0.25 µg/mL
ATCC 25922-lexA(S119A); day 1 post infection, plates 20 ng/mL
  Colonies isolated on plates containing ciprofloxacin: 3
ATCC 25922-lexA(S119A); day 1 post infection, plates 80 ng/mL
  Colonies isolated on plates containing ciprofloxacin: 1
ATCC 25922-lexA(S119A); day 2 post infection, plates 20 ng/mL
  Colonies isolated on plates containing ciprofloxacin: 2
ATCC 25922-lexA(S119A); day 2 post infection, plates 80 ng/mL
  Colonies isolated on plates containing ciprofloxacin: 0

## CO[C@H]1/C=C/O[C@@]2(C)Oc3c(C)c(O)c4c(O)c(c(/C=N/N5CCN(C)CC5)c(O)c4c3C2=O)NC(=O)/C(C)=C\C=C\[C@H](C)[C@H](O)[C@@H](C)[C@@H](O)[C@@H](C)[C@H](OC(C)=O)[C@@H]1C [rifampin]
E. coli MG1655; 4 mg/mL rifampicin in PBS, four days, 37° C., plated on 35 ng/mL ciprofloxacin
  effect on number of ciprofloxacin resistant colonies: no effect
E. coli MG1655; 12 mg/mL rifampicin in PBS, four days, 37° C., plated on 35 ng/mL ciprofloxacin
  effect on number of ciprofloxacin resistant cells: dramatic increase
E. coli MG1655; 36 mg/mL rifampicin in PBS, four days, 37° C., plated on 35 ng/mL ciprofloxacin
  effect on number of ciprofloxacin resistant cells: dramatic increase
E. coli MG1655; umuDC deletion stain, 12 or 36 mg/mL rifampicin
  effect on number of ciprofloxacin resistant cells in umuDC deletion strain: essentially completely lost
[4]; [11]
  MIC: > 16400 µg/mL
[4]; [12]
  MIC: 8 µg/mL (≈ 9.72 µM)
[5]; [11]
  MIC: 16 to 32 µg/mL (≈ 19.4 to 38.9 µM)
[5]; [12]
  MIC: 8 µg/mL (≈ 9.72 µM)
ATCC 25922 lexA(S119A) [6]; Escherichia coli, ATCC25922, parent strain, read-out: MIC
  MIC: 8 µg/mL (≈ 9.72 µM)
ATCC 25922 lexA(S119A) [6]; colonies after therapy
  MIC: 8.0 µg/mL (≈ 9.72 µM)
E. coli ATCC 25922-ΔlacZ [7]; ATCC25922, colonies isolated from the rifampin containing plates after therapy
  MIC: > 256 µg/mL
E. coli ATCC 25922-ΔlacZ [7]; ATCC25922, parent strain
  MIC: 8 µg/mL (≈ 9.72 µM)
E. coli ATCC 25922-ΔlacZ [8]
  CFU/Thigh, Media (outcome of mice): mice dead.
ATCC 25922 lexA(S119A) [9]
  colonies on rifampin containing plates: no colonies grew
E. coli ATCC 25922-ΔlacZ [10]
  colonies on rifampin containing plates: large number
